According to PMC4396990, “Targeting Vascular Endothelial Growth Factor Receptor 2 and Protein Kinase D1 Related Pathways by a Multiple Kinase Inhibitor in Angiogenesis and Inflammation Related Processes In Vitro” (PLoS ONE, 2015):

Assays:
Format in all cases: biochemical
PKD1 = biological target: T1, PKD1 (Homo sapiens, UniProt Q15139); experiment: recombinant kinase assay (IMAP fluorescence polarization, TAMRA-peptide)
T1 construct: gene PRKD1
T1 sequence (Q15139 1-912): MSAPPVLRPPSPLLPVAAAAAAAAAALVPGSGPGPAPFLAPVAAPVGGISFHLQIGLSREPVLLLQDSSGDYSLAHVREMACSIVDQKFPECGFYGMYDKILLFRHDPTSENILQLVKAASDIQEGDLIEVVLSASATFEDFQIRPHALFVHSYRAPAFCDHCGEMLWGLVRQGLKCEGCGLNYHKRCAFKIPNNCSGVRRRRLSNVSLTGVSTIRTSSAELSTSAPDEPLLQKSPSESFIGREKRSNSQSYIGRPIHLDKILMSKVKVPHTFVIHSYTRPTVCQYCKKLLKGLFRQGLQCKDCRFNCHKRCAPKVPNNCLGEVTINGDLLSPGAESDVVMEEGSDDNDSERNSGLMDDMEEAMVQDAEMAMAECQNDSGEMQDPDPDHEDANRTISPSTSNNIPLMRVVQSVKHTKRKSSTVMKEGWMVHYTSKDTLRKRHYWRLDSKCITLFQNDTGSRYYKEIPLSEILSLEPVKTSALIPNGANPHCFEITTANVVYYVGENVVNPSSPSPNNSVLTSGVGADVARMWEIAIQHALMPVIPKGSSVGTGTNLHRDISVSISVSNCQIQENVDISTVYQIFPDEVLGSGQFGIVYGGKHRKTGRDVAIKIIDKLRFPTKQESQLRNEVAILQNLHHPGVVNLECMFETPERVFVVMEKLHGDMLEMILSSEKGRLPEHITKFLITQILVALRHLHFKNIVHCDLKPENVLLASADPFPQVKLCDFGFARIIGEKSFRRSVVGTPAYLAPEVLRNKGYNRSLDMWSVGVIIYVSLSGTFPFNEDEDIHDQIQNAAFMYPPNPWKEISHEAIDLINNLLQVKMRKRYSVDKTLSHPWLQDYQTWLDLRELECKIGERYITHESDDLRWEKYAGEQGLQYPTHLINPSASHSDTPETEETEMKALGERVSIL

VEGFR2 = biological target: T2, VEGFR2 (Homo sapiens, UniProt P35968); experiment: recombinant kinase assay (Transcreener ADP detection)
T2 construct: gene KDR

VEGFR1 = biological target: T3, VEGFR1 (Homo sapiens, UniProt P17948); experiment: recombinant kinase assay (ProQinase) at single […] concentration
T3 construct: gene FLT1

PKD2 = biological target: T4, PKD2 (Homo sapiens, UniProt Q9BZL6); experiment: kinase selectivity study (SignalChem) at single […] concentration
T4 construct: gene PRKD2
T4 sequence (Q9BZL6 1-878): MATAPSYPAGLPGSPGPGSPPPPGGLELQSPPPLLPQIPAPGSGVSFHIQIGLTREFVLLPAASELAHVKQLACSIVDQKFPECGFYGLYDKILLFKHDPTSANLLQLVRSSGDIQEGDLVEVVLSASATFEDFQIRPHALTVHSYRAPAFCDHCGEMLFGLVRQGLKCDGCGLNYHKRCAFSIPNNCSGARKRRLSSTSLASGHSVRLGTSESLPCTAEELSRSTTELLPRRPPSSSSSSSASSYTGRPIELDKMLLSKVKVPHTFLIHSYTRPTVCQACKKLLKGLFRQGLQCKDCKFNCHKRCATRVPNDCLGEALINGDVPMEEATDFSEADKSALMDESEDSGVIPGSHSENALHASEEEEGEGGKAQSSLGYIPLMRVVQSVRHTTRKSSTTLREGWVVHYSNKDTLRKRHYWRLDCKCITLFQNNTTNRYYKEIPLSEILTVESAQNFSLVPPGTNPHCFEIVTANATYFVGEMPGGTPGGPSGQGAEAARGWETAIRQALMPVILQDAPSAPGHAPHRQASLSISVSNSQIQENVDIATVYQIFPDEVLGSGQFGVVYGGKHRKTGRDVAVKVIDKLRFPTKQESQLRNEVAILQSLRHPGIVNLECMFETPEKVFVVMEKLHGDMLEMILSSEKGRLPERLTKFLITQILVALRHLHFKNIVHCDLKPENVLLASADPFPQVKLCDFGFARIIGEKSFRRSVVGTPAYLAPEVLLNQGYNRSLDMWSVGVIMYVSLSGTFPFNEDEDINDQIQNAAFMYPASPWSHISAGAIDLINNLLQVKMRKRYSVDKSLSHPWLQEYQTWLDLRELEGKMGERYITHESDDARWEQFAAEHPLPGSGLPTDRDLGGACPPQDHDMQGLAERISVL

VEGFR3 = biological target: T5, VEGFR3 (Homo sapiens, UniProt P35916); experiment: recombinant kinase assay (ProQinase) at single […] concentration
T5 construct: gene FLT4
T5 sequence (P35916 25-1363): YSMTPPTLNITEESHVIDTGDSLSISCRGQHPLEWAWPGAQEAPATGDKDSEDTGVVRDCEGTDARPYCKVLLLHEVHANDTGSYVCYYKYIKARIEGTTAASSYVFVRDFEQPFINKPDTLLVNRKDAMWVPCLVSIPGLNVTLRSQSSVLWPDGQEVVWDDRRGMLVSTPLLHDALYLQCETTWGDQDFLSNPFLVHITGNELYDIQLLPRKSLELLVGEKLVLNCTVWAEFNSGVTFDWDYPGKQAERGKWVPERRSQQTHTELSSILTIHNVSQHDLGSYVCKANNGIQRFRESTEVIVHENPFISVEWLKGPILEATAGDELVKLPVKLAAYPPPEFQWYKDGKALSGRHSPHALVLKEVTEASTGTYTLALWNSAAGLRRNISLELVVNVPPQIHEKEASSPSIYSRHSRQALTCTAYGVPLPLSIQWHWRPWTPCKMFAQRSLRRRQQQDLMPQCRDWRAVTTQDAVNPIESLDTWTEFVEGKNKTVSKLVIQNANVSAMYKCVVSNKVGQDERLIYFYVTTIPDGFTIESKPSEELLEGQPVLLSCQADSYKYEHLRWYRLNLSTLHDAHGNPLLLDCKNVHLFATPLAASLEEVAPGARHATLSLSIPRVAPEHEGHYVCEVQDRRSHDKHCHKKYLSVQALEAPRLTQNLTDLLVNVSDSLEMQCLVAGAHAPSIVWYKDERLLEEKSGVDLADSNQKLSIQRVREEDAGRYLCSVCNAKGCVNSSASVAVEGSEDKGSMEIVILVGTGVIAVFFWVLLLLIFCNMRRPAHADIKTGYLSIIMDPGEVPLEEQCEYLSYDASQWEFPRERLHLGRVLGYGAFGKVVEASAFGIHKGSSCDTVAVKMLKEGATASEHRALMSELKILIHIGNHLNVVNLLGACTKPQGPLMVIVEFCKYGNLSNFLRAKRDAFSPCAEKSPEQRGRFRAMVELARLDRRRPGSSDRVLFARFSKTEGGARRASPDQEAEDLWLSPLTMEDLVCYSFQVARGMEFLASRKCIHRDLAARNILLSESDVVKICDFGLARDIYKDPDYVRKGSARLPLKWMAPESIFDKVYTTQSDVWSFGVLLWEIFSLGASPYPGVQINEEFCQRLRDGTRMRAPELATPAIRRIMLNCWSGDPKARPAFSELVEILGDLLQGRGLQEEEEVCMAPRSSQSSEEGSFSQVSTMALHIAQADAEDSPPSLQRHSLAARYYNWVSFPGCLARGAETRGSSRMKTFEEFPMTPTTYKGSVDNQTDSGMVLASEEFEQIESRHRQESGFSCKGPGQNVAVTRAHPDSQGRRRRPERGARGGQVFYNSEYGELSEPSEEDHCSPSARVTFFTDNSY

T2 sequence (P35968 20-1356): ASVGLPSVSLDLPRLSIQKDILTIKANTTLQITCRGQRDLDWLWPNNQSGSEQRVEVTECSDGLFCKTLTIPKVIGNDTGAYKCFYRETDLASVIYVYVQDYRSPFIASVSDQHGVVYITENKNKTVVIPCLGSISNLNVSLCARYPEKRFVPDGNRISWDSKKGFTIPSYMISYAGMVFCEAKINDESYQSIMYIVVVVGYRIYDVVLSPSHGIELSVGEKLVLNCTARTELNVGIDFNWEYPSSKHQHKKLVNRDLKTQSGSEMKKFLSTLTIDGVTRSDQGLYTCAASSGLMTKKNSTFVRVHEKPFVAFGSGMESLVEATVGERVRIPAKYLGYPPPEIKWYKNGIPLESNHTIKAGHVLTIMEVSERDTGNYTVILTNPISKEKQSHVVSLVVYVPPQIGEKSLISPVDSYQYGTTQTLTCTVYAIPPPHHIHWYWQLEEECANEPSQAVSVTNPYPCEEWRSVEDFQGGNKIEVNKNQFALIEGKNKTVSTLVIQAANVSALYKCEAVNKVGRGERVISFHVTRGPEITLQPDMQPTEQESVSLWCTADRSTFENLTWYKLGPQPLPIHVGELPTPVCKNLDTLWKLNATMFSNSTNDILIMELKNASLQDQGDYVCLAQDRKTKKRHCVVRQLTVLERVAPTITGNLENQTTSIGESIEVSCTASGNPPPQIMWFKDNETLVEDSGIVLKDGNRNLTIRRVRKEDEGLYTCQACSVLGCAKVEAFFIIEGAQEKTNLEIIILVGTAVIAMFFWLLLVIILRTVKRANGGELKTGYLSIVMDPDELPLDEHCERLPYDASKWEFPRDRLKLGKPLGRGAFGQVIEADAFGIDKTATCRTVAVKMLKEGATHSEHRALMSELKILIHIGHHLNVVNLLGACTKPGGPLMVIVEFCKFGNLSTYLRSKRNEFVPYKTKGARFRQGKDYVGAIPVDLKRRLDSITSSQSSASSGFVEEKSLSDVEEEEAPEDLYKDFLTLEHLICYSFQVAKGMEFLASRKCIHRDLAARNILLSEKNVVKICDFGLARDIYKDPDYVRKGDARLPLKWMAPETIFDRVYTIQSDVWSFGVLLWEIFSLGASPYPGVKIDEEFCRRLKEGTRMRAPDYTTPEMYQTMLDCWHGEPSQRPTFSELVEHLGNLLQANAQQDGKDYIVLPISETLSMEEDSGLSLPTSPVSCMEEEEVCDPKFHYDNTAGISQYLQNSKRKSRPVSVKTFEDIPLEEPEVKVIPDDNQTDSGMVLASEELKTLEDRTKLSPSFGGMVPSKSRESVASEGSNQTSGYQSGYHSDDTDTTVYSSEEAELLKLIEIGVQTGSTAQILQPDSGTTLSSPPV
T3 sequence (P17948 27-1338): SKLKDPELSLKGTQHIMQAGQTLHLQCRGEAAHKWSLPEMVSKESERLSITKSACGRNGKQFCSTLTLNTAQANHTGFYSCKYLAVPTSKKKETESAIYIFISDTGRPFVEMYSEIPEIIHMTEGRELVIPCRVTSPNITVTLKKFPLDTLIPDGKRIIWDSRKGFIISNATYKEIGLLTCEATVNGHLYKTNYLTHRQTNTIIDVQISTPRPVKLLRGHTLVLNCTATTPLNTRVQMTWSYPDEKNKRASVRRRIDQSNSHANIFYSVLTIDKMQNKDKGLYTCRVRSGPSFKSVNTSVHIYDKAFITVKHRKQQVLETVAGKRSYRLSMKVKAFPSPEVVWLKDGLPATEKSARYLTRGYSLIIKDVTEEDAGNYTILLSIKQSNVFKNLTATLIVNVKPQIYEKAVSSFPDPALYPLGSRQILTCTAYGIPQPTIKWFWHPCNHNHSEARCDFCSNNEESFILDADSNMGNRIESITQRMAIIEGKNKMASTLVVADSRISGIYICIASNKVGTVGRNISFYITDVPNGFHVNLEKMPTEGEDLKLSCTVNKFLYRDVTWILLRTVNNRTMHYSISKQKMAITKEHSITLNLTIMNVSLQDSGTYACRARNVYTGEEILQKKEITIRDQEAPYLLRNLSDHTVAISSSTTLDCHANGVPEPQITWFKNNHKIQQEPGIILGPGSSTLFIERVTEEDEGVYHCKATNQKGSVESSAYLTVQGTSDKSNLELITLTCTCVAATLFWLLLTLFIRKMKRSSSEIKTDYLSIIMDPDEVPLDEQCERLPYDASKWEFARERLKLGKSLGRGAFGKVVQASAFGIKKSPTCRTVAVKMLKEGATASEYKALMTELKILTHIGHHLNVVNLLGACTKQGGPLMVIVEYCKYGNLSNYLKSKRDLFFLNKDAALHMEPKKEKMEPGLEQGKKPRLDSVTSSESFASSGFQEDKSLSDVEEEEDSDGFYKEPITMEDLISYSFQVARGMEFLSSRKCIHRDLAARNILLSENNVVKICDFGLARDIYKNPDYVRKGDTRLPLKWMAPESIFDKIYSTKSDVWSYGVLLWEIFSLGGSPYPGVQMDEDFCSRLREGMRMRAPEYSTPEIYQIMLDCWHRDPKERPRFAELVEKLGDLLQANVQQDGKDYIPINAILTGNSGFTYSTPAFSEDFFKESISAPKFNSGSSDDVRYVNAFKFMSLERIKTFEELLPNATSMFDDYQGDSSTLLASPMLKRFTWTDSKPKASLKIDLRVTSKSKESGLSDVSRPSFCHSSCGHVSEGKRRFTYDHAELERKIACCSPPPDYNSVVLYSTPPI

- IC50 (PKD1): 28 nM
- IC50 (VEGFR2): 69 nM
SMILES: CCn1c(=O)ccc2cnc(Nc3ccc(N4CCN(C)CC4)cc3)nc21 [VCC251801]
- recombinant kinase assay (ProQinase) at single 1 μM concentration (VEGFR1): In this selectivity study, VCC251801 blocked both VEGFR1 and VEGFR3 activation
- kinase selectivity study (SignalChem) at single 5 μM concentration (PKD2): it showed moderate inhibitory effect against the other PKD isoform, PKD2
- recombinant kinase assay (ProQinase) at single 1 μM concentration (VEGFR3): In this selectivity study, VCC251801 blocked both VEGFR1 and VEGFR3 activation
